Values after ≈ are worked out from the molar mass of the structure shown. Counter-ions that a name gives are not always drawn. Like-named read-outs stand apart in the source and are kept apart here.
Experiments:
[1] = system: Escherichia coli (ATCC25922); test: MIC, broth microdilution (CLSI), Escherichia coli; details: Escherichia coli, ATCC25922, read-out: E. coli ATCC 25922 MIC, Table XIII
[2] = system: Staphylococcus aureus subsp. aureus (ATCC29213); test: MIC, broth microdilution (CLSI), Staphylococcus aureus ATCC29213; format: cell-based; details: Staphylococcus aureus
[3] = ATCC29213, Table XIII, read-out: S. aureus ATCC 29213 MIC
[4] = ATCC29213, read-out: S. aureus ATCC 29213 MIC, Table XIII

| SMILES | MIC [1] | MIC [2, 3] | MIC [2, 4] |
| --- | --- | --- | --- |
| Cl.Cl.NC1CCC(NCCC(c2cccnc2)c2cn(C3CCCCC3)c3ccccc23)CC1 (stereo not drawn) [Compound 330, N1-(3-(1-cyclohexyl-1H-indol-3-yl)-3-(pyridin-3-yl)propyl)cyclohexane-1,4-diamine hydrochloride salt] | > 128 µg/mL | 64 µg/mL |  |
| N#Cc1ccc2c(c1)c(C1CCCC(NCCCN)C1)cn2C1CCCCC1 (stereo not drawn) [Compound 389, 3-(3-((3-aminopropyl)amino)cyclohexyl)-1-cyclohexyl-1H-indole-5-carbonitrile] | 32 µg/mL (≈ 84.5 µM) | 16 µg/mL (≈ 42.3 µM) |  |
| Cl.Cl.N#Cc1ccc2c(c1)c(C(CCNC1CCNCC1)C1CCCCC1)cn2C1CCCCC1 (stereo not drawn) [Compound 406, 1-cyclohexyl-3-(1-cyclohexyl-3-(piperidin-4-ylamino)propyl)-1H-indole-5-carbonitrile salt] | 8 µg/mL | 8 µg/mL |  |
| Cc1cccc(C(CCNC2CCNCC2)c2cn(CC3CCNCC3)c3ccc(C#N)cc23)c1 (stereo not drawn) [Compound 326, 3-(3-(piperidin-4-ylamino)-1-(m-tolyl)propyl)-1-(piperidin-4-ylmethyl)-1H-indole-5-carbonitrile hydrochloride salt] | 128 µg/mL |  | 32 µg/mL |
| Cc1cccc(C(CCNCCN)c2cn(C3CCCCC3)c3ccccc23)c1.Cl.Cl (stereo not drawn) [Compound 347, N1-(3-(1-cyclohexyl-1H-indol-3-yl)-3-(m-tolyl)propyl)ethane-1,2-diamine hydrochloride salt] | 16 µg/mL | 8 µg/mL |  |
| Cl.Cl.c1ccc2c(c1)c(C(CCNC1CCNCC1)c1ccncc1)cn2C1CC2CCC1C2 (stereo not drawn) [Compound 337, N-(3-(1-(bicyclo[2.2.1]heptan-2-yl)-1H-indol-3-yl)-3-(pyridin-4-yl)propyl)piperidin-4-amine hydrochloride salt] | 64 µg/mL | 32 µg/mL |  |
| O=C(O)c1ccc2c(c1)c(CNCC1CCNCC1)cn2CC1CCCCC1 [Compound 305, 1-(cyclohexylmethyl)-3-(((piperidin-4-ylmethyl)amino)methyl)-1H-indole-5-carboxylic acid hydrochloride salt] | > 128 µg/mL |  | > 128 µg/mL |
| NC1CCC(NCCC(c2cccnc2)c2cn(CC3CCCCC3)c3ccccc23)CC1 (stereo not drawn) [Compound 319, N1-(3-(1-(cyclohexylmethyl)-1H-indol-3-yl)-3-(pyridin-3-yl)propyl) cyclohexane-1,4-diamine hydrochloride salt] | 64 µg/mL |  | 32 µg/mL |
| Cl.Cl.N[C@H]1CC[C@H](NCCC(c2ccncc2)c2cn(C3CCCCC3)c3ccccc23)CC1 (stereo partly drawn) [Compound 340, (1r,4r)-N1-(3-(1-cyclohexyl-1H-indol-3-yl)-3-(pyridin-4-yl)propyl) cyclohexane-1,4-diamine hydrochloride salt] | 128 µg/mL | 64 µg/mL |  |
| Cc1cccc(C(CCN(C#N)C2CCC(NC(N)=O)CC2)c2cn(C3CCCCC3)c3ccccc23)c1 [Compound 361, 1-(((1S,4S)-4-(N-(3-(1-cyclohexyl-1H-indol-3-yl)-3-(m-tolyl)propyl)cyanamido)cyclohexyl)urea salt] | > 128 µg/mL | > 128 µg/mL |  |
| CCN(Cc1cn(CC2CCCCC2)c2ccccc12)CC1CCN(C)CC1 [Compound 303, N-((1-(cyclohexylmethyl)-1H-indol-3-yl)methyl)-N-((1-methylpiperidin-4-yl)methyl)ethanamine] | 128 µg/mL (≈ 335 µM) | 128 µg/mL (≈ 335 µM) |  |
| Cc1cccc(C(CCNCCCCN)c2cn(C3CCCCC3)c3ccccc23)c1.Cl.Cl (stereo not drawn) [Compound 350, N1-(3-(1-cyclohexyl-1H-indol-3-yl)-3-(m-tolyl)propyl)butane-1,4-diamine salt] | 8 µg/mL | 8 µg/mL |  |
| Cc1cccc(C(CCNCC2(CN)CC2)c2cn(C3CCCCC3)c3ccccc23)c1 (stereo not drawn) [Compound 390, N-((1-(aminomethyl)cyclopropyl)methyl)-3-(1-cyclohexyl-1H-indol-3-yl)-3-(m-tolyl)propan-1-amine] | 8 µg/mL (≈ 18.6 µM) | 8 µg/mL (≈ 18.6 µM) |  |
| Cc1cccc(C(CCNC2CCNCC2)c2cn(C3CCNCC3)c3ccccc23)c1 (stereo not drawn) [Compound 317, N-(3-(1-(piperidin-4-yl)-1H-indol-3-yl)-3-(m-tolyl)propyl)piperidin-4-amine hydrochloride salt] | > 128 µg/mL |  | 64 µg/mL |
| Cc1cccc(C(CCNC2CCC(N)CC2)c2cn(CC3CCNCC3)c3ccccc23)c1 (stereo not drawn) [Compound 313, N1-(3-(1-(piperidin-4-ylmethyl)-1H-indol-3-yl)-3-(m-tolyl)propyl)cyclohexane-1,4-diamine hydrochloride salt] | > 128 µg/mL |  | 16 µg/mL |
| Cl.Cl.NCCCNCCC(c1cccnc1)c1cn(CC2CCCCC2)c2ccccc12 (stereo not drawn) [Compound 321, N1-(3-(1-(cyclohexylmethyl)-1H-indol-3-yl)-3-(pyridin-3-yl)propyl)propane-1,3-diamine hydrochloride salt] | 64 µg/mL | 32 µg/mL |  |
| Cc1cccc(C(CCNC2CCNCC2)c2cn(CC3CCNCC3)c3ccccc23)c1 (stereo not drawn) [Compound 315, N-(3-(1-(piperidin-4-ylmethyl)-1H-indol-3-yl)-3-(m-tolyl)propyl) piperichn-4-amine hydrochloride salt] | > 128 µg/mL |  | 64 µg/mL |

| SMILES | MIC [1] | MIC [2, 3] | MIC [2, 4] |
| --- | --- | --- | --- |
| CNCCCNCCC(c1cccc(C)c1)c1cn(C2CCCCC2)c2ccccc12.Cl.Cl (stereo not drawn) [Compound 368, N1-(3-(1-cyclohexyl-1H-indol-3-yl)-3-(m-tolyl)propyl)-N3-methylpropane-1,3-diamine hydrochloride] | 8 µg/mL | 8 µg/mL |  |
| Cl.Cl.c1cncc(C(CCNC2CCNCC2)c2cn(C3CCCCC3)c3ccccc23)c1 (stereo not drawn) [Compound 329, N-(3-(1-cyclohexyl-1H-indol-3-yl)-3-(pyridin-3-yl)propyl)piperidin-4-amine hydrochloride salt] | 64 µg/mL | 32 µg/mL |  |
| CN(Cc1cn(CC2CCCCC2)c2ccccc12)CC1CCNCC1 [Compound 301, 1-(1-(cyclohexylmethyl)-1H-indol-3-yl)-N-methyl-N-(piperidin-4-ylmethyl)methanamine hydrochloride salt] | 128 µg/mL |  | 128 µg/mL |
| Cc1cccc(C(CCNC2CCC(N)CC2)c2cn(C3CCNCC3)c3ccccc23)c1 (stereo not drawn) [Compound 306, N1-(3-(1-(piperidin-4-yl)-1H-indol-3-yl)-3-(m-tolyl)propyl)cyclohexane-1,4-diamine hydrochloride salt] | > 128 µg/mL |  | 16 µg/mL |
| CC(=O)N1CCC(N(CCC(c2cccc(C)c2)c2cn(C3CCCCC3)c3ccccc23)C(C)=O)CC1 (stereo not drawn) [Compound 354, N-(1-acetylpiperidin-4-yl)-N-(3-(1-cyclohexyl-1H-indol-3-yl)-3-(m-tolyl)propyl)acetamide salt] | > 128 µg/mL | 128 µg/mL |  |
| Cc1cccc(C(CCNCC2CNCCO2)c2cn(C3CCCCC3)c3ccc(Br)cc23)c1 (stereo not drawn) [Compound 405, 3-(5-bromo-1-cyclohexyl-1H-indol-3-yl)-N-(morpholin-2-ylmethyl)-3-(m-tolyl)propan-1-amine hydrochloride salt] | 16 µg/mL |  | 8 µg/mL |
| CCN(Cc1cn(CC2CCCCC2)c2ccccc12)CC1CCNCC1 [Compound 302, hydrochloride salt] | 128 µg/mL |  | 128 µg/mL |
| Cc1cccc(C(CCNC2CCNCC2)c2cn(CC3CCOCC3)c3ccc(C#N)cc23)c1 (stereo not drawn) [Compound 316, 3-(3-(piperidin-4-ylamino)-1-(m-tolyl)propyl)-1-((tetrahydro-2H-pyran-4-yl)methyl)-1H-indole-5-carbonitrile hydrochloride salt] | 64 µg/mL |  | 64 µg/mL |
| COc1cccc(C(CCNCCCN)c2cn(C3CCCCC3)c3ccc(C#N)cc23)c1 (stereo not drawn) [Compound 402, 3-(3-((3-aminopropyl)amino)-1-(3-methoxyphenyl)propyl)-1-cyclohexyl-1H-indole-5-carbonitrile hydrochloride salt] | 16 µg/mL |  | 8 µg/mL |
| Cc1cccc(C(CCNCCCN)c2cn(CC3CCOCC3)c3ccc(C#N)cc23)c1 (stereo not drawn) [Compound 318, 3-(3-((3-aminopropyl)amino)-1-(m-tolyl)propyl)-1-((tetrahydro-2H-pyran-4-yl)methyl)-1H-indole-5-carbonitrile hydrochloride salt] | > 128 µg/mL |  | 64 µg/mL |
| c1cncc(C(CCNC2CCNCC2)c2cn(C3CC4CCC3C4)c3ccccc23)c1 (stereo not drawn) [Compound 325, hydrochloride salt] | 64 µg/mL |  | 64 µg/mL |
| c1ccc2c(c1)c(CNCC1CCNCC1)cn2CC1CCCCC1 [Compound 300, 1-(1-(cyclohexylmethyl)-1H-indol-3-yl)-N-(piperidin-4-ylmethyl)methanamine hydrochloride salt] | 128 µg/mL |  | 128 µg/mL |
| Cl.Cl.NCCCNCCC(c1ccncc1)c1cn(C2CC3CCC2C3)c2ccccc12 (stereo not drawn) [Compound 338, N1-(3-(1-(bicyclo[2.2.1]heptan-2-yl)-1H-indol-3-yl)-3-(pyridin-4-yl)propyl)propane-1,3-diamine hydrochloride salt] | 128 µg/mL | 64 µg/mL |  |
| Cc1cccc(CC(CCNCCCN)c2cn(C3CCCCC3)c3ccccc23)c1.Cl.Cl (stereo not drawn) [Compound 419, N1-(3-(1-cyclohexyl-1H-indol-3-yl)-4-(m-tolyl)butyl)propane-1,3-diamine hydrochloride salt] | 8 µg/mL | 8 µg/mL |  |
| Cc1cccc(C(CCNC2CCC(N)CC2)c2cn(CC3CCOCC3)c3ccc(C#N)cc23)c1 (stereo not drawn) [Compound 312, 3-(3-((4-aminocyclohexyl)amino)-1-(m-tolyl)propyl)-1-((tetrahydro-2H-pyran-4-yl)methyl)-1H-indole-5-carbonitrile hydrochloride salt] | 64 µg/mL |  | 32 µg/mL |
| Cc1cccc(C(CCNCCCO)c2cn(C3CCCCC3)c3ccccc23)c1 (stereo not drawn) [Compound 366, 3-((3-(1-cyclohexyl-1H-indol-3-yl)-3-(m-tolyl)propyl)amino) propan-1-ol] | > 128 µg/mL | 16 µg/mL (≈ 39.5 µM) |  |

Source: patent US20210246115A1 (Bioimics AB, priority 2017, published 2021)
